Data from US20020156016A1, “Control of cell growth by altering cell membrane potentials” (priority 2001, published 2002).

Assays:
Format in all cases: cell-based, human
[1] = tested on: Chang cells transfected with vector alone; experiment: Proliferative activity after varying concentrations of muscimol; details: muscimol 0-100 μM, FIG. 12
Experimental: (§1) [^3H]-thymidine incorporation was determined as described by Luk (Luk, 1986, Gastroenterology 90: 1261-1267). 5×10^4 cells were seeded into 6-well plates. After two days of culture to allow attachment to plate bottoms, cells were incubated with 1 μCi [^3H]-thymidine for 2 hours at 37° C. [^3H]-thymidine incorporated into cellular DNA was precipitated by the addition of 10% trichloroacetic acid (TCA) for 15 min at room temperature. Cells were rinsed and resolublilized in a 0.3 M NaOH and 1% SDS solution then assayed for radioactivity in a […].
(§2) Bromodeoxyuridine (BrdUrd) incorporation was determined by seeding 5×10^3 cells into 96 well plates. At subconfluence, cells were incubated with serum-free DMEM. Twenty-four hours later, the media was switched to DMEM containing BrdUrd for 2 hours. Incoroporation of BrdUrd was determined using a 5-Bromo-2′-deoxyuridine Labeling and Detection Kit III (Roche Diagnostics, Mississauga, Ontario, Canada) according to the manufacturer's instructions. Absorbance at 450-490 nm was measured using a microplate reader (Molecular Devices, Menlo Park, Calif., USA).
(§3) WST-1 determinations were performed using a commercially available kit (Boehringer Mannheim Canada, Laval, Quebec, Canada). Briefly, 1×10^4 cells were seeded into 96 well plates. After two days of culture one tenth the volume of 4-[3-(4-lodophenyl)-2-(4-nitrophenyl)-2H-5-tetrazolio]-1,3-benzene disulfonate (WST-1, Boehringer Mannheim, Laval, PQ) was added to each well, and the cells incubated with WST-1 for 4 h in 37° C. Asborbance at A405-A650 was determined by a microplate reader (Molecular Devices, Menlo Park, Calif., USA).
(§4) To determine whether the addition of muscimol and/or other GABAA receptor agonists might have therapeutic value in inhibiting the growth of malignant hepatocytes with restored GABAAβ3 receptor mRNA expression, proliferative activity was documented in Chang cells transfected with GABAA-β3 receptor cDNA or vector alone following exposure to varying concentrations of muscimol (0-100 μM).

[2] = tested on: Chang cells transfected with GABAA-β3 receptor cDNA; experiment: as above; details: muscimol 0-100 μM, FIG. 12
Experimental: as §1, §2, §3, §4

[3] = tested on: Chang cells; experiment: Cell PD determination (TMRE fluorescence); details: non-transfected Chang cells, 50 μM muscimol, 48 hours
Experimental: (§5) A Leica DM IRB fluorescence microscope equipped with a PDMI-2 Open perfusion Micro-incubator (Harvard Apparatus, Saint-Laurent, Quebec) was used to measure PDs as described by Loew (Loew, 1998, Cell Biology: A Laboratory Handbook). The incubating temperature was 37° C. Twenty four hour cultured healthy, human hepatocytes and malignant hepatocytes were washed with NB buffer (130 mM NaCl, 5.5 mM KCl, 1.8 mM CaCl2, 1.0 mM MgCl2, 25 mM glucose and 20 mM HEPES buffer adjusted to pH 7.4) three times and then incubated for 10 min with NTB buffer (100 nM tetramethylrhodamine ethyl ester (TMRE) in NB buffer). After obtaining photographs of the fluorescent cells, they were washed with KB buffer (130 mM KCl, 5.5 mM NaCl, 1.8 mM CaCl2, 1.0 mM MgCl2, 25 mM glucose and 20 mM HEPES buffer adjusted to pH 7.4) three times and incubated for 10 min with DTB buffer (100 nM TMRE and 1 μM valinomysin in KB buffer). Photographs were then obtained of the depolarized cells. Fluorescence within the cell was designated intracellular fluorescence (Fin) and fluorescence outside the cell as extracellular fluorescence (Fout). To calculate PDs the Nernst equation was used.
(§6) PD=−(RT/ZF)λn[Fin dFout)/(FoutdFin),
where PD is membrane potential, Z is the charge of the permeable ion, F is Faraday's constant, R is the ideal gas constant and T is the absolute temperature. […]

[4] = tested on: Chang cells transfected with vector alone; experiment: Cell PD determination (TMRE fluorescence) after muscimol exposure; details: 50 μM muscimol, 48 hours
Experimental: as §5, §6
(§7) where PD is membrane potential, Z is the charge of the permeable ion, F is Faraday's constant, R is the ideal gas constant and T is the absolute temperature.
(§8) To determine whether further hyperpolarization could be achieved in Chang cells transfected with GABAA-β3 receptor cDNA, these cells together with non-transfected Chang cells and Chang cells transfected with vector alone were exposed to 50 μM muscimol, a specific GABAA receptor agonist for 48 hours.

[5] = tested on: Chang cells transfected with GABAA-β3 receptor cDNA; experiment: as above
Experimental: as §5, §6, §7, §8

NCc1cc(=O)[nH]o1 [muscimol]
proliferative activity [1]: remained essentially unaltered | proliferative activity [2]: dose dependent decrease | proliferative activity ([2]; listed as Muscimol): significantly decreased in a dose dependent fashion | effect on PDs [3]: little or no effect | effect on PDs [4]: little or no effect | increase of PDs after muscimol ([5]; 50 μM muscimol, 48 hours): approximately 40% | PD post-muscimol ([5]; 50 μM muscimol, 48 hours, pre-muscimol −12.0±0.9): −16.4±0.8 | effect on membrane potentials (PDs), in words ([5]; Muscimol 50 μM, FIG. 11): became more polarized
